Reference: ChEMBL document CHEMBL3124746, “Triazine Analogues as NS5B Inhibitors for the Treatment of HCV” (ACS Med Chem Lett, 2014)

Tested on: Hepatitis C virus
Assay: Antiviral activity against HCV infected in human HuH7 cells assessed as inhibition of viral replication after 2 days by luciferase reporter gene assay
Type: functional, organism-based, Hepacivirus hominis
Details: Huh-7, 48 h

Structure (SMILES): COC(=O)[C@@H](CCNC(=O)C(=O)Nc1cccc(OC(F)(F)F)c1)NC(=O)c1ccc(Nc2nc(NC3(c4ccc(Cl)cc4)CC3)nc(OCC(F)(F)F)n2)cc1
- EC50: 160 pM

Structure (SMILES): CNC(=O)C(=O)NC[C@@H](NC(=O)c1ccc(Nc2nc(NC3(c4ccc(Cl)cc4)CC3)nc(OCC(F)(F)F)n2)cc1)C(=O)O
- EC50: 690 pM
